Patent US20180369268A1, “METHODS FOR IDENTIFYING INHIBITORS OF "STIMULATOR OF INTERFERON GENE"- DEPENDENT INTERFERON PRODUCTION” (ADURO BIOTECH, INC., priority 2015, published 2018)

What follows are molecules tested against T1, hSTING HAQ allele (Homo sapiens, UniProt Q86WV6, G230A/H232R/R293Q) (assay: Differential scanning fluorometry (DSF) Tm shift with purified STING AA140-379). Conditions: DSF, ligand 1 mM, 1 mg/ml STING AA140-379; read-out: hSTING Tm Shift HAQ.
T1 construct: DNA encoding amino acids 140-379 (amino acid numbering corresponding to Swiss Prot Q86WV6); 6xHIS-SUMO (with TEV site) (N, cleaved yes); made in house; host or cells: Rosetta2 (DE3) E. coli
Assay type: binding
From the text: DNA encoding amino acids 140-379 (amino acid numbering corresponding to Swiss Prot Q86WV6) was amplified from plasmids containing the full length sequence of human STING alleles via polymerase chain reaction with the following primers: forward […] (SEQ ID NO: 9) and reverse […] (SEQ ID NO: 10). STING variant alleles were assigned according to Yi, et al, (2013), PLoS One, 8(10), e77846 (DOI: 10.1371/journal.pone.0077846. PCR products were cloned into bacterial expression vector encoding a N-terminal hexa-histidine affinity tag (6×HIS) followed by a small ubiquitin-like modifier (SUMO) solubility sequence (Butt, et al, (2005) Protein expression and purification 43.1, 1-9) and tobacco etch virus protease cleavage site (TEV) using ligation independent cloning (Aslanidis, et al, (1990) Nucleic acids research, 18.20, 6069-6074).
Plasmids encoding 6×HIS-SUMO-TEV-STING amino acids 140-379 were transformed into Rosetta2 (DE3) E. coli cells (EMD Millipore) for protein expression. Cells were grown in lysogeny broth at 37° C. until a […] absorbance of 0.6 was reached. Cells were then transferred to 18° C. and protein expression was induced overnight by the addition of isopropyl β-D-1-thiogalactopyranoside to the media at a concentration of 0.25 mM. Cells were harvested by centrifugation at 6,000 times gravity for 10 minutes. Cell pellets were re-suspended on ice in a buffer containing 50 mM Tris hydrochloride (Tris-HCl) pH 7.5, 500 mM sodium chloride (NaCl), 20 mM imidazole, 10% glycerol, 1 mM tris(2-carboxyethyl)phosphine hydrochloride (TCEP) and protease inhibitor tablet (Pierce) (Buffer A). Cells were lysed using an S-450D sonifier (Emmerson industrial) on ice. Cell lysate was centrifuged at 15,000 times gravity for 30 minutes at 4° C. Soluble material was applied to nickel-nitrilotriacetic acid (Ni-NTA) coupled Sepharose CL-6B (Qiagen) for 1 hour with gentle rocking at 4° C. After transfer to a gravity flow poly-prep column (Bio-Rad), resin was washed extensively in buffer A. Protein was eluted from the column in a buffer containing 20 mM Tris-HCl pH 7.5, 150 mM NaCl, 300 mM imidazole, 10% glycerol and 0.5 mM TCEP. To remove the 6×HIS-SUMO tag eluted protein was mixed with TEV protease (Sigma) at a ratio of 1:250 (w:w) and dialyzed overnight against a buffer containing 20 mM Tris-HCl pH 7.5, 150 mM NaCl, 5 mM imidazole, 10% glycerol and 0.5 mM TCEP. TEV protease and 6×HIS-SUMO tags were depleted by the addition of Ni-NTA resin (Qiagen) to the sample, purified STING amino acids 140-379 was collected by removal of the resin using a poly-prep column STING AA140-379 was concentrated with a 10,000 Dalton molecular weight cutoff centrifuge concentrator (EMD Millipore) to a final concentration of approximately 10 mg/ml. Protein was aliquoted, flash frozen in liquid nitrogen and stored at −80° C. until use.
Differential scanning fluorometry (DSF) is a technique that measures the ability of ligands to bind to and stabilize purified proteins (Niesen, et al, (2007) Nature protocols 2.9, 2212-2221). The protein is heated in the presence of a dye that binds to and fluoresces in hydrophobic environments. The protein is thermally denatured by heating resulting in increased dye binding to the unfolded protein and fluorescence. The temperature midpoint (Tm) of a proteins denaturation is established by calculating the half maximal value of the denaturation curve. The temperature midpoint of the protein in the presence of a ligand is directly related to the affinity of the ligand for the protein and therefore its ability to stabilize the protein at higher temperatures.
DSF was performed in a 20 μL reaction comprising 20 mM Tris-HCl pH 7.5, 150 mM NaCl, 1:500 dilution of SYPRO Orange (Life Technologies), 1 mg/ml purified STING AA140-379 protein and ligand at a concentration of 1 mM. Wild type hSTING, HAQ allele hSTING and/or REF allele hSTING were used with scaffold molecules of the invention as listed in Table 2.

T1 sequence (Q86WV6 140-379 G230A/H232R/R293Q): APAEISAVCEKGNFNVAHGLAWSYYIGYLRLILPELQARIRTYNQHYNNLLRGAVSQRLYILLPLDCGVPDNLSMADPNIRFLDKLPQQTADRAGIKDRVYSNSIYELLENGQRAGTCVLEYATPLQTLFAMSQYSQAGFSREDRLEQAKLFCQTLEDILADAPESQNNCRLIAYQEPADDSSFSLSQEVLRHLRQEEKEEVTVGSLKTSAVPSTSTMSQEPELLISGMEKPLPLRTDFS

Compound	ΔTm at 1000 µM [°C]
Nc1nc(N)c2ncn([C@@H]3O[C@@H]4CO[P@@](=O)(S)O[C@H]5[C@@H](O)[C@H](n6cnc7c(N)nc(N)nc76)O[C@@H]5CO[P@](=O)(S)O[C@H]4[C@H]3O)c2n1 [Compound 23a, (2R,3R,3aS,5R,7aR,9R,10R,10aS,12S,14aR)-2,9-bis(2,6-diamino-9H-purin-9-yl)-3,10-dihydroxy-5,12-dimercaptooctahydro-2H,7H-difuro[3,2-d:3′,2′-j][1,3,7,9]tetraoxa[2,8]diphosphacyclododecine 5,12-dioxide]	6.3
CC(C)C(=O)Nc1nc2c(ncn2[C@@H]2O[C@@H]3CO[P@@](=O)(S)O[C@@H]4[C@H](O)[C@@H](CO[P@@](=O)(S)O[C@H]3[C@H]2O)O[C@H]4n2cnc3c(NC(=O)c4ccccc4)ncnc32)c(=O)[nH]1 [Compound 42, dithio-[RP, RP]-cyclic-[ibG(3′,5′)p-BzA(2′,5′)p]]	7.6
Nc1nc(N)c2ncn([C@@H]3O[C@@H]4CO[P@@](=O)(S)O[C@H]5[C@@H](O)[C@H](n6cnc7c(N)nc(N)nc76)O[C@@H]5CO[P@@](=O)(S)O[C@H]4[C@H]3O)c2n1 [Compound 23, (2R,3R,3aS,5R,7aR,9R,10R,10aS,12R,14aR)-2,9-bis(2,6-diamino-9H-purin-9-yl)-3,10-dihydroxy-5,12-dimercaptooctahydro-2H,7H-difuro[3,2-d:3′,2′-j][1,3,7,9]tetraoxa[2,8]diphosphacyclododecine 5,12-dioxide]	15.1
Nc1ncnc2c1ncn2[C@H]1O[C@H]2CO[P@@](=O)(S)O[C@@H]3[C@H](O)[C@@H](n4cnc5c(N)ncnc54)O[C@H]3CO[P@](=O)(S)O[C@@H]2[C@@H]1O [Compound 48a, Triethylammonium (2S,3S,3aR,5R,7aS,9S,10S,10aR,12S,14aS)-2,9-bis(6-amino-9H-purin-9-yl)-3,10-dihydroxyoctahydro-2H, 7H-difuro[3,2-d: 3′,2′-j][1,3,7,9]tetraoxa[2,8]diphosphacyclododecine-5,12-bis(thiolate) 5,12-dioxide]	6.6
C#CCOc1nc(N)nc2c1ncn2[C@@H]1O[C@@H]2COP(=O)(O)O[C@H]3[C@@H](O)[C@H](n4cnc5c(=O)[nH]c(N)nc54)O[C@@H]3COP(=O)(O)O[C@H]2[C@H]1O [compound 25, 2-amino-9-((2R,3R,3aS,7aR,9R,10R,10aS,14aR)-9-(2-amino-6-(prop-2-yn-1-yloxy)-9H-purin-9-yl)-3,5,10,12-tetrahydroxy-5,12-dioxidooctahydro-2H,7H-difuro[3,2-d:3′,2′-j][1,3,7,9]tetraoxa[2,8]diphosphacyclododecin-2-yl)-1,9-dihydro-6H-purin-6-one]	7.2
Nc1ccn([C@@H]2O[C@@H]3CO[P@@](=O)(S)O[C@H]4[C@@H](F)[C@H](n5cnc6c(N)ncnc65)O[C@@H]4CO[P@@](=O)(S)O[C@H]3[C@H]2F)c(=O)n1 [Compound 37, 4-amino-1-((2R,3R,3aR,5R,7aR,9R,10R,10aR,12R,14aR)-9-(6-amino-9H-purin-9-yl) 3,10-difluoro-5,12-dimercapto 5,12-dioxidooctahydro-2H,7H-difuro[3,2-d:3′,2′-j][1,3,7,9]tetraoxa[2,8]diphosphacyclododecin-2-yl)pyrimidin-2(1H)-one]	10.3
Nc1nc2c(ncn2[C@@H]2O[C@@H]3CO[P@](=O)(S)O[C@@H]4[C@H](O)[C@@H](CO[P@](=O)(S)O[C@H]3[C@H]2O)O[C@H]4n2cnc3c(N)ncnc32)c(=O)[nH]1 [Compound 43]	10.5
CC(C)C(=O)Nc1nc2c(ncn2[C@@H]2O[C@@H]3CO[P@@](=O)(S)O[C@H]4[C@@H](F)[C@H](n5cnc6c(=O)[nH]c(NC(=O)C(C)C)nc65)O[C@@H]4CO[P@@](=O)(S)O[C@H]3[C@H]2F)c(=O)[nH]1 [Compound 32, N,N′-(((2R,3R,3aR,5R,7aR,9R,10R,10aR,12R,14aR)-3,10-difluoro-5,12-dimercapto-5,12-dioxidooctahydro-2H, 7H-difuro[3,2-d:3′,2′-j][1,3,7,9]tetraoxa[2,8]diphosphacyclododecine-2,9-diyl)bis(6-oxo-6,9-dihydro-1H-purine-9,2-diyl))bis(2-methylpropanamide)]	11.5
Nc1ncnc2c1ncn2[C@H]1O[C@H]2CO[P@](=O)(S)O[C@@H]3[C@H](O)[C@@H](n4cnc5c(N)ncnc54)O[C@H]3CO[P@](=O)(S)O[C@@H]2[C@@H]1O [Compound 48, (2S,3S,3aR,5S,7aS,9S,10S,10aR,12S,14aS)-2,9-bis(6-amino-9H-purin-9-yl)-3,10-dihydroxy-5,12-dimercaptooctahydro-2H,7H-difuro[3,2-d:3′,2′-j][1,3,7,9]tetraoxa[2,8]diphosphacyclododecine 5,12-dioxide]	2.3
Nc1ccn([C@@H]2O[C@@H]3CO[P@](=O)(S)O[C@H]4[C@@H](F)[C@H](n5cnc6c(N)ncnc65)O[C@@H]4CO[P@@](=O)(S)O[C@H]3[C@H]2F)c(=O)n1 [Compound 37a, 4-amino-1-((2R,3R,3aR,5R,7aR,9R,10R, 10aR,12S,14aR)-9-(6-amino-9H-purin-9-yl)-3,10-difluoro-5,12-dimercapto-5,12-dioxidooctahydro-2H,7H-difuro[3,2-d: 3′,2′-j][1,3,7,9]tetraoxa[2,8]diphosphacyclododecin-2-yl)pyrimidin-2(1H)-one]	6.4
Nc1ncnc2c1ncn2[C@H]1O[C@H]2CO[P@@](=O)(S)O[C@@H]3[C@H](O)[C@@H](n4cnc5c(N)ncnc54)O[C@H]3CO[P@@](=O)(S)O[C@@H]2[C@@H]1O [Compound 48b, triethylammonium (2S,3S,3R,5R,7aS,9S,10S,10aR,12R,14aS)-2,9-bis(6-amino-9H-purin-9-yl)-3,10-dihydroxyoctahydro-2H,7H-difuro[3,2-d: 3′,2′-j][1,3,7,9]tetraoxa[2,8]diphosphacyclododecine-5,12-bis(thiolate) 5,12-dioxide]	3.5

Same assay, conditions: read-out: hSTING Tm Shift HAQ

Compound	ΔTm at 1000 µM [°C]
CC(C)(C)[Si](C)(C)O[C@H]1[C@H]2O[P@@](=O)(S)OC[C@H]3O[C@@H](n4cnc5c(N)ncnc54)[C@H](F)[C@@H]3O[P@](=O)(S)OC[C@H]1O[C@H]2n1cnc2c(N)ncnc21 [Compound 6a, dithio-[SP, RP]-cyclic-[3′OTBS-A(2′,5′)p-2′F-A(3′,5′)p]]	20.2
